Reference: patent US8557862B2, “Synergistic antimicrobial composition” (Dow Global Technologies LLC, priority 2009, dated 2013)

Tested on: oil field isolated anaerobic SRB consortium
Experiment: Biocidal efficacy (MBC for complete bacteria kill) against sulfate reducing bacteria
Type: cell-based, Sulfate Reducing Bacteria (SRB)
Details: minimum tested biocide concentration for complete bacteria kill, alone or in the blend, 40° C., 24 hour, anaerobic salt solution, 10^6 to 10^7 CFU/mL
Method: Inside an anaerobic chamber (BACTRON III), a deaerated sterile salt solution (3.1183 g of NaCl, […] of NaHCO3, 47.70 mg of KCl, 72.00 mg of CaCl2, 54.49 mg of MgSO4, 172.28 mg of Na2SO4, 43.92 mg of Na2CO3 in 1 L water) was contaminated with an oil field isolated anaerobic SRB consortium at final bacterial concentrations of 10^6 to 10^7 CFU/mL. The aliquots of this contaminated water were then treated with glutaraldehyde and DXN, or the glutaraldehyde/DXN combination at different active concentration levels. After the mixtures were incubated at 40° C. for 24 hour, the biocidal efficacy was determined by minimum tested biocide concentration for complete bacteria kill in the aliquots (MBC). Table 1 summarizes the efficacy of each biocide and their blends, and the Synergy Index* of each combination.

## CC(=O)OC1CC(C)OC(C)O1 (centres unmarked) [0:1, 2,6-dimethyl-1,3-dioxan-4-yl acetate]
DXN concentration
  MBC (active ppm) DXN: 333.33 active ppm

## O=CCCCC=O [1:0, glutaraldehyde]
Glutaraldehyde concentration
  MBC (active ppm) glut: 2.63 active ppm
